The target in experiment [1] is Human Glucocorticoid Receptor (GR) (Homo sapiens (Human), UniProt P04150). The experiment can be described thus: Human Glucocorticoid Receptor (GR) radioligand binding assay (competition with 3H-labeled Dexamethasone). The following applies: full length GR, 7 nM 3H-dexamethasone, 2 h at room temperature; read-out: GR Hu Bind Filter Mean Control IC50. Here is the method:
Human Glucocorticoid Receptor (GR) Assay
The radioligand GR binding assay is based on a competition assay using ^3H-labeled Dexamethasone, Dexamethasone is known to bind in the ligand binding domain of GR and compete for binding with endogenous ligands like e.g. cortisol (Necela, 2003).
In the GR radioligand binding assay, test compounds were serially diluted in semi-log steps (10 concentrations) with a final concentration of 10 μM. Test compounds (1 μL) and controls (1 μL) in 100% DMSO were added to 96 Greiner V-bottom polypropylene plates. 0% control was 6.7% DMSO (final concentration in assay) and 100% control was 6.7 μM Dexamethasone.
The full length GR was diluted to a final concentration of 3.3% (0.495 mg/ml) in assay buffer (20 mM Tris-HCl, 1 mM EDTA, 10% (w/v) Glycerol, 20 mM Sodium molbydate, pH 7.4). 45 μL of GR was added to each well and the plates were incubated for 15 min at room temperature.
^3H-dexamethasone solution was diluted to a concentration of 70 nM in assay buffer (7 nM final assay concentration) and 5 μL was added to each well. The samples were mixed for 5 min using a plate shaker at 700 rpm, before incubation for 2 h at room temperature,
50 μL ice-cold charcoal solution (pH 7.4: 2% Charcoal, 0.2% Dextran T70 in 20 mM Tris-HCl, 1 mM EDTA and 20 mM Sodium molbydate) was'added to each well and the samples were mixed on plate shaker for 5 minutes.
The plate was then centrifuged for 1.5 min at 1500 rpm, the samples (80 μL) were transferred from each well to a filter plate (Millipore, 0.45 μm, MHVBN45) on a vacuum manifold and then collected into new plates (Greiner, 96 well white/transparent, 655095). The filter plate was washed once with 20 μl of water and then 100 μL of scintillation liquid was added to each well and mixed by incubation on plate shaker for 5 min. Radioactivity was measured in a 1450 Microbeta Trilux Reader (Wallac) counting cpm for 2 minutes per well. The data obtained from each replicate experiment were analysed using the software ActivityBase, version 5.4.3 (ID Business Solutions Ltd) and IC50 values were calculated. Ref: Necela, B M, Cidlowski, J A, Trends Pharmacol Sci, 24: 58, 2003

The test system of experiment [2] is AP-1/TRE-activity in ChaGo-K-1 cells transfected with 5×TRE-LacZ. Briefly: Transrepression Reporter Gene Assay (TRE-LacZ transfected ChaGo-K-1 cells, PMA stimulated). The settings on record: PMA 10 ng/ml, Dexamethasone 10^-6 M set as 100 percent control, read-out: Agonism TRE IC50. It is filed as cell-based, human. Here is the method:
Transrepression Reporter Gene Assay
The human bronchogenic carcinoma cell-line, ChaGo-K-1 (ATCC: HTB 168), were transfected with 5×TRE-LacZ (clone 16:15:5 s5), i.e. TRE transfected cells, to measure transrepression activity of the selected compounds. Before use, the cells were grown for one to two weeks in selection medium containing 0.7 mg geneticin (G418)/ml medium. The cells were cultured at 37° C., 5% CO2 and 100% humidity in 96 well microtiter plates in RPMI-medium complemented with 10% fetal calf serum, 1% non-essential amino acids and 1% sodium pyruvate. The cells were passaged once weekly.
The TRE transfected cells were seeded in 96 well plates with 25-30 000 cells/well and grown for 72-96 h, to reach about 80% confluence. To stimulate the upregulation of the AP-1/TRE-activity, the cells were stimulated with 10 ng/ml Phorbol Myristate acetate (PMA) 3-5 h prior to addition of compounds. The PMA was present during the whole experiment. The TRE mediated effects (transrepression) in the transfected ChagGo-K-1 cells was measured as downregulation of β-galactosidase activity. The β-galactosidase activity for the transrepression experiments was measured by a fluorometric assay performed in microtiter plates. Cells were washed once in PBS. 180 μl of a reaction mixture containing 5 parts of Z-buffer and one part 4-methylumbelliferyl-β-D-galactosidase (MUG)-solution was then added (150 μl Z-buffer [18 μl 0.6 M Na2HPO4, 12 μl 0.6 M NaH2PO4, 7.2 μl 0.25 M KCl, 18 μl 0.01 M MgSO4, 1.8 μl 10% Triton X-100, 93 μl H2O]+30 μl 3 mM 4-methylumbelliferyl-[…]). After 60 min incubation at 37° C., 70 μl stop buffer was added to each well and the fluorescence was read in a fluorometer (Spectramax Gemini) with emission filter at 460 nm and excitation filter at 360 nm. The TRE activity was calculated as the relative activity compared to cells not treated with compounds. Inhibition of β-galactosidase by the compounds is expressed as percent inhibition compared to Dexamethasone 10^−6 M set as a 100 percent control within each experiment and DMSO 0.1% set as background control. The effect of Dexamethasone is well documented in this system and was therefore chosen as a positive control for comparison of the potency and efficacy of the compounds.
In general terms: A reporter such as luciferase makes a cellular process visible.

The mark [3] stands for this setting: Homo sapiens, ChaGo-K-1, downregulation of β-galactosidase activity.

SMILES strings stand for the structures. Where two headings read alike, the source gives them in different places.

For orientation: IC50 means the concentration that gives 50% inhibition.

Human Glucocorticoid Receptor (GR), sequence (P04150 whole entry): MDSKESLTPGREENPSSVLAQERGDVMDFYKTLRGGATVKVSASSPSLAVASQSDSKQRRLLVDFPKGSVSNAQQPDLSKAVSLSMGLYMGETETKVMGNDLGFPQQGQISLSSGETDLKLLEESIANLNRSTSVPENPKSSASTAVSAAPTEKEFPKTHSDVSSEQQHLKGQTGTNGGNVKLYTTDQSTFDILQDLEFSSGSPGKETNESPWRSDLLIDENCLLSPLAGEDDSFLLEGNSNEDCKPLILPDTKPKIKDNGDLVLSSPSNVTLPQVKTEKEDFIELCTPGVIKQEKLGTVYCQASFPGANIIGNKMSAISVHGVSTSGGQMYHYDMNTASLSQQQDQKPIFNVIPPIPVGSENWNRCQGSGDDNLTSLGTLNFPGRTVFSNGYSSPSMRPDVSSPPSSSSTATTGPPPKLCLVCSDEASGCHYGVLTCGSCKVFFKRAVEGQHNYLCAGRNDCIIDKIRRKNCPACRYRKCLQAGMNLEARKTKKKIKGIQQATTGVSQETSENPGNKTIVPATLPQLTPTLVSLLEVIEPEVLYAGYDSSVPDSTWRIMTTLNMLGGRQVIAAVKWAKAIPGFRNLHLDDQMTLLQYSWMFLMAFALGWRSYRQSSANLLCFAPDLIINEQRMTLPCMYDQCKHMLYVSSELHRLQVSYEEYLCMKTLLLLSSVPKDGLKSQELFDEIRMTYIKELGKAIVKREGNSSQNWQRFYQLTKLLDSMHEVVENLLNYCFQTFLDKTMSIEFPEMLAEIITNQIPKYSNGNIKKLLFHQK

For the compound `C[C@H](NC(=O)C(C)(F)F)[C@H](Oc1ccc2c(cnn2-c2cccc(C(=O)N[C@H]3CC[S+]([O-])C3)c2)c1)c1ccc2c(c1)OCOC2` (single isomer, unassigned) [Example 15], the half-inhibitory concentration (IC50) worked out at 3.64 nM in experiment [1] and 0.499 nM in experiment [2] (setting [3]).
For the compound `C[C@H](NC(=O)C(C)(F)F)[C@H](Oc1ccc2c(cnn2-c2cccc(C(=O)N[C@H]3CC[S+]([O-])C3)c2)c1)c1ccc2c(c1)OCOC2` (single isomer, unassigned) [Example 16], the values for the half-maximal inhibitory concentration (IC50) in experiment [1] and in experiment [2] (downregulation of β-galactosidase activity) were 4.27 nM and 0.6 nM, respectively.
As for `C[C@H](NC(=O)C(C)(F)F)[C@H](Oc1ccc2c(cnn2-c2cccc(C(=O)N[C@@H]3CCS(=O)(=O)C3)c2)c1)c1ccc2c(c1)OCOC2` [Example 3, 3-[5-({(1R,2S)-1-(4H-1,3-Benzodioxin-7-yl)-2-[(2,2-difluoropropanoyl)amino]propyl}oxy)-1H-indazol-1-yl]-N-[(3R)-1,1-dioxidotetrahydrothiophen-3-yl]benzamide], in experiment [2] (setting [3]), the 50% inhibitory concentration (IC50) worked out at 0.344 nM.
For `C[C@H](NC(=O)C(C)(F)F)[C@H](Oc1ccc2c(cnn2-c2cccc(C(=O)N[C@H]3CCS(=O)(=O)C3)c2)c1)c1ccc2c(c1)OCOC2` [Example 4, 3-[5-({(1R,2S)-1-(4H-1,3-benzodioxin-7-yl)-2-[(2,2-difluoropropanoyl)amino]propyl}oxy)-1H-indazol-1-yl]-N-[(3S)-1,1-dioxidotetrahydrothiophen-3-yl]benzamide], in experiment [2] (setting [3]), the IC50 was 0.733 nM.
Consider `C[C@H](NC(=O)C(C)(F)F)[C@H](Oc1ccc2c(cnn2-c2cccc(C(=O)NC3CCCC3)c2)c1)c1ccc2c(c1)OCCO2` [Example 7, N-cyclopentyl-3-(5-{[(1R,2S)-2-[(2,2-difluoropropanoyl)amino]-1-(2,3-dihydro-1,4-benzodioxin-6-yl)propyl]oxy}-1H-indazol-1-yl)benzamide], for which the concentration for half-maximal inhibition (IC50) in experiment [1] was found to be 1.3 nM; in experiment [2] (setting [3]), 0.163 nM.
Consider `C[C@H](NC(=O)C(C)(F)F)[C@H](Oc1ccc2c(cnn2-c2cccc(C(=O)NC3CCCC3)c2)c1)c1ccc2c(c1)OCOC2` [Example 8, 3-[5-({(1R,2S)-1-(4H-1,3-benzodioxin-7-yl)-2-[(2,2-difluoropropanoyl)amino]propyl}oxy)-1H-indazol-1-yl]-N-cyclopentylbenzamide], for which the half-maximal inhibitory concentration (IC50) stood at 0.796 nM in experiment [1] and 0.388 nM in experiment [2] (setting [3]).
The like results for `C[C@H](NC(=O)C(C)(F)F)[C@H](Oc1ccc2c(cnn2-c2cccc(C(=O)N[C@@H]3CCC[C@@H]3O)c2)c1)c1ccc2c(c1)OCCO2` [Example 10, 3-(5-{[(1R,2S)-2-[(2,2-difluoropropanoyl)amino]-1-(2,3-dihydro-1,4-benzodioxin-6-yl)propyl]oxy}-1H-indazol-1-yl)-N-[(1R,2S)-2-hydroxycyclopentyl]benzamide] were, in that order, 0.647 nM and 0.112 nM.
As to `CC[C@@H](O)CNC(=O)c1cccc(-n2ncc3cc(O[C@H](c4ccc5c(c4)OCOC5)[C@H](C)NC(=O)C(C)(F)F)ccc32)c1` [Example 11, 3-[5-({(1R,2S)-1-(4H-1,3-benzodioxin-7-yl)-2-[(2,2-difluoropropanoyl)amino]propyl}oxy)-1H-indazol-1-yl]-N-[(2R)-2-hydroxybutyl]benzamide], the IC50 in experiment [1] stood at 2.15 nM; in experiment [2] (setting [3]), 0.517 nM.
Turning to `C[C@H](NC(=O)C(C)(F)F)[C@H](Oc1ccc2c(cnn2-c2cccc(C(=O)N[C@@H]3CCC[C@@H]3O)c2)c1)c1ccc2c(c1)OCOC2` [Example 14, 3-[5-({(1R,2S)-1-(4H-1,3-benzodioxin-7-yl)-2-[(2,2-difluoropropanoyl)amino]propyl}oxy)-1H-indazol-1-yl]-N-[(1R,2S)-2-hydroxycyclopentyl]benzamide], the IC50 came out at 1.75 nM in experiment [1] and 0.145 nM in experiment [2] (setting [3]).
Turning to `C[C@H](NC(=O)C(C)(F)F)[C@H](Oc1ccc2c(cnn2-c2cccc(C(=O)NCc3ccccc3)c2)c1)c1ccc2c(c1)OCOC2` [Example 17, 3-[5-({(1R,2S)-1-(4H-1,3-benzodioxin-7-yl)-2-[(2,2-difluoropropanoyl)amino]propyl}oxy)-1H-indazol-1-yl]-N-benzylbenzamide], the values for the half-maximal inhibitory concentration (IC50) in experiment [1] and in experiment [2] (setting [3]) were 0.996 nM and 0.754 nM, respectively.
For `C[C@H](NC(=O)C(C)(F)F)[C@H](Oc1ccc2c(cnn2-c2cccc(C(=O)N[C@H]3CCC[C@@H]3O)c2)c1)c1ccc2c(c1)OCOC2` [Example 18, 3-[5-({(1R,2S)-1-(4H-1,3-benzodioxin-7-yl)-2-[(2,2-difluoropropanoyl)amino]propyl}oxy)-1H-indazol-1-yl]-N-[(1S,2S)-2-hydroxycyclopentyl]benzamide], the IC50 in experiment [1] worked out at 3.44 nM; in experiment [2] (setting [3]) it was 0.552 nM.
